Source: PMC10897476, “Pyridylpiperazine efflux pump inhibitor boosts in vivo antibiotic efficacy against K. pneumoniae” (EMBO Molecular Medicine, 2023)
Values joined by “and” are separate entries in the source; they are usually repeats but may differ in a detail not shown here. Equal entries are not always repeated. Where a SMILES comes first, the peptide text is derived from it.

Columns and labels:
Assay type in all cases: cell-based, Klebsiella pneumoniae
[1] = system: K. pneumoniae RamR^mut (K124*stop); assay: Checkerboard assay levofloxacin x EPI, RamR mutant; conditions: for checkerboard growth readout: ATCC43816 ramRmut, levofloxacin 0 ng/mL
Procedure: (§1) MIC experiments were carried out according to the CLSI guidelines (CLSI [2023]). Overnight cultures were diluted to an OD600 = 0.001 in CAMHB followed by addition of efflux pump inhibitors (EPIs) at a final concentration of 100 µM. […] Plates were incubated at 37 °C for up to 20 h. Bacterial viability was evaluated using the resazurin microtitre assay (REMA) and measured by fluorescence using a Tecan Spaert multimode plate reader (Ex: 530 nm Em: 590 nm). MICs were defined as the concentration that prevented 90% of resazurin turnover compared to the non-treated bacteria.
(§2) Bacterial suspensions, incubation and plate readouts were carried out as described above.

[2] = system: K. pneumoniae AcrB^V448E; assay: Checkerboard assay levofloxacin x EPI, AcrB V448E mutant; conditions: for checkerboard growth readout: ATCC43816 AcrBV448E, levofloxacin 0 ng/mL; for Median REMA values / percentage resazurin turnover: Lev 0.00 ng/mL
Procedure: as §1, §2

[3] = system: K. pneumoniae ATCC 43816 (WT); assay: Checkerboard assay levofloxacin x EPI, WT strain; conditions: for checkerboard growth readout: ATCC43816 WT, levofloxacin 0 ng/mL; for percentage resazurin turnover: individual replicates, listed as PABN; for Median REMA values (percentage resazurin turnover): median n=3
Procedure: as §1, §2

[4] = system: K. pneumoniae AcrB^V448E RamR^mut; assay: Checkerboard assay levofloxacin x EPI, double mutant; conditions: ATCC43816 AcrBV448E ramRmut, levofloxacin 0 ng/mL
Procedure: as §1, §2

[5] = system: K. pneumoniae AcrB^V448E; assay: MIC of antibiotics with and without EPI (REMA), AcrB V448E mutant; conditions: K. pneumoniae-AcrB^V448E, Table 2
Procedure, shortened: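 K. pneumoniae ATCC 43816 carrying single chromosomal acrB or ramR mutations introduced by allelic exchange, diluted to OD600 = 0.001 in CAMHB with EPI at final 100 µM. Incubated 37 °C up to 20 h; viability by resazurin fluorescence (Ex 530/Em 590 nm).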

NC(N)=NCCC[C@H](NC(=O)[C@@H](N)Cc1ccccc1)C(=O)Nc1ccc2ccccc2c1 [PAβN] (HELM PEPTIDE1{F.R.[c1ccc2cc(N[*:1])ccc2c1]}$$$$V2.0)
checkerboard growth readout ([1]; EPI 2.3 µM): 83 | checkerboard growth readout ([1]; EPI 4.7 µM): 85 | checkerboard growth readout ([1]; EPI 9.4 µM): 97 | checkerboard growth readout ([1]; EPI 19 µM): 113 | checkerboard growth readout ([1]; EPI 38 µM): 126 | checkerboard growth readout ([1]; EPI 75 µM): 200 | checkerboard growth readout ([1]; EPI 150 µM): 177 | checkerboard growth readout ([1]; EPI 300 µM): 157 | reversion of RamR-mediated levofloxacin resistance, in words ([1]; K. pneumoniae RamR^mut): only be partially reverted | checkerboard growth readout ([2]; EPI 2.3 µM): 91 | checkerboard growth readout ([2]; EPI 4.7 µM): 95 | checkerboard growth readout ([2]; EPI 9.4 µM): 107 | checkerboard growth readout ([2]; EPI 19 µM): 112 | checkerboard growth readout ([2]; EPI 38 µM): 147 | checkerboard growth readout ([2]; EPI 75 µM): 161 | checkerboard growth readout ([2]; EPI 150 µM): 143 | checkerboard growth readout ([2]; EPI 300 µM): 143 | boosting of levofloxacin activity, in words ([2]; K. pneumoniae AcrB^V448E): maintained | Median REMA values ([2]; PABN 2.34 uM): 91% | percentage resazurin turnover ([2]; PABN 2.34 uM): 108% and 91% and 74% | Median REMA values ([2]; PABN 4.69 uM): 95% | percentage resazurin turnover ([2]; PABN 4.69 uM): 95% and 102% and 74% | Median REMA values ([2]; PABN 9.38 uM): 107% | percentage resazurin turnover ([2]; PABN 9.38 uM): 113% and 107% and 80% | Median REMA values ([2]; PABN 18.75 uM): 112% | percentage resazurin turnover ([2]; PABN 18.75 uM): 120% and 112% | Median REMA values ([2]; PABN 37.50 uM): 147% | percentage resazurin turnover ([2]; PABN 37.50 uM): 147% and 150% and 121% | Median REMA values ([2]; PABN 75.00 uM): 161% | percentage resazurin turnover ([2]; PABN 75.00 uM): 161% and 123% and 162% | Median REMA values ([2]; PABN 150.00 uM): 143% | percentage resazurin turnover ([2]; PABN 150.00 uM): 143% and 146% and 114% | Median REMA values ([2]; PABN 300 uM): 143% | percentage resazurin turnover ([2]; PABN 300 uM): 143% and 112% | checkerboard growth readout ([3]; EPI 2.3 µM): 75 | checkerboard growth readout ([3]; EPI 4.7 µM): 87 | checkerboard growth readout ([3]; EPI 9.4 µM): 110 | checkerboard growth readout ([3]; EPI 19 µM): 116 | checkerboard growth readout ([3]; EPI 38 µM): 154 | checkerboard growth readout ([3]; EPI 75 µM): 143 | checkerboard growth readout ([3]; EPI 150 µM): 129 | checkerboard growth readout ([3]; EPI 300 µM): 135 | percentage resazurin turnover ([3]; Lev 0.00 ng/mL + EPI 2.34 uM): 100% and 75% and 71% | Median REMA values (percentage resazurin turnover) ([3]; Lev 0.00 ng/mL + EPI 2.34 uM): 75% | percentage resazurin turnover ([3]; Lev 0.00 ng/mL + EPI 4.69 uM): 108% and 87% and 69% | Median REMA values (percentage resazurin turnover) ([3]; Lev 0.00 ng/mL + EPI 4.69 uM): 87% | percentage resazurin turnover ([3]; Lev 0.00 ng/mL + EPI 9.38 uM): 112% and 110% and 90% | Median REMA values (percentage resazurin turnover) ([3]; Lev 0.00 ng/mL + EPI 9.38 uM): 110% | percentage resazurin turnover ([3]; Lev 0.00 ng/mL + EPI 18.75 uM): 116% and 136% and 109% | Median REMA values (percentage resazurin turnover) ([3]; Lev 0.00 ng/mL + EPI 18.75 uM): 116% | percentage resazurin turnover ([3]; Lev 0.00 ng/mL + EPI 37.50 uM): 154% and 197% and 115% | Median REMA values (percentage resazurin turnover) ([3]; Lev 0.00 ng/mL + EPI 37.50 uM): 154% | percentage resazurin turnover ([3]; Lev 0.00 ng/mL + EPI 75.00 uM): 134% and 143% and 152% | Median REMA values (percentage resazurin turnover) ([3]; Lev 0.00 ng/mL + EPI 75.00 uM): 143% | percentage resazurin turnover ([3]; Lev 0.00 ng/mL + EPI 150.00 uM): 129% and 156% and 124% | Median REMA values (percentage resazurin turnover) ([3]; Lev 0.00 ng/mL + EPI 150.00 uM): 129% | percentage resazurin turnover ([3]; Lev 0.00 ng/mL + EPI 300 uM): 162% and 135% and 125% | Median REMA values (percentage resazurin turnover) ([3]; Lev 0.00 ng/mL + EPI 300 uM): 135% | checkerboard growth readout ([4]; EPI 2.3 µM): 79 | checkerboard growth readout ([4]; EPI 4.7 µM): 95 | checkerboard growth readout ([4]; EPI 9.4 µM): 80 | checkerboard growth readout ([4]; EPI 19 µM): 121 | checkerboard growth readout ([4]; EPI 38 µM): 158 | checkerboard growth readout ([4]; EPI 75 µM): 211 | checkerboard growth readout ([4]; EPI 150 µM): 226 | checkerboard growth readout ([4]; EPI 300 µM): 191 | susceptibility of the strain to antibiotic boosting by the EPI, in words [5]: remained sensitive
